In patent US8815909B2, “Diaminocyclohexane compounds and uses thereof” (Bristol-Myers Squibb Company, priority 2011, dated 2014):
Where two headings read alike, the source gives them in different places.

Target: T1, human Y4 receptor (Homo sapiens, UniProt P50391)
T1 construct: expressed in transfected cells
Assay: NPY4 cAMP HTRF Agonist Assay (inhibitory cAMP assay, Gi activation by Y4 agonism)
Format: cell-based
Conditions: read-out: hY4 CAMP EC50
How it was run: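 Y4 agonism read as lowered forskolin-stimulated cAMP (HTRF, 1 h detection at room temperature). Stable human Y4 CHO clone, 5000 cells/well, incubated 30 min at room temperature with compounds plus forskolin and IBMX in PBS.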

[1] = second TABLE 1, R2 is Phenyl-CF3

T1 sequence (P50391 whole entry): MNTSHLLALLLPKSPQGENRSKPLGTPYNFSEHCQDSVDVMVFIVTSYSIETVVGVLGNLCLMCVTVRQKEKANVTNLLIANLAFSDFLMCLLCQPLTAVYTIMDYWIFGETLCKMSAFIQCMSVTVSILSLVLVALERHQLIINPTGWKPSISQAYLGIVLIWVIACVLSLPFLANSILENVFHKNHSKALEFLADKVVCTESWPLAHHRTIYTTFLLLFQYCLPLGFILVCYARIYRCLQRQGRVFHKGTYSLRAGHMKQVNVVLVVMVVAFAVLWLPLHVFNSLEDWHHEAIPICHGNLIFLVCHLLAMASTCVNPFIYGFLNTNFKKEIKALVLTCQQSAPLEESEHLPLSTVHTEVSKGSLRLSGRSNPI

Structure (SMILES)	EC50 [1] [nM]	EC50 (TABLE 2, R2 is Phenyl-CN) [nM]
FC(F)(F)c1ccc(N2CCC[C@H](N[C@@H]3CCCC[C@H]3Nc3cc(-c4cccc(C5CCCN5)c4)ccn3)C2)cc1 (stereo partly shown) [Example 183]	153	–
CCOC(=O)c1cnc(N[C@@H]2CCCC[C@H]2N[C@H]2CCCN(c3ccc(C(F)(F)F)cc3)C2)o1 [Example 184, ethyl 2-(((1R,2R)-2-(((S)-1-(4-(trifluoromethyl)phenyl)piperidin-3-yl)amino)cyclohexyl)amino)oxazole-5-carboxylate]	764	–
CCCC#Cc1ccnc(N[C@@H]2CCCC[C@H]2N[C@H]2CCCN(c3ccc(C(F)(F)F)cc3)C2)c1 [Example 185]	218	–
OCCCCCc1ccnc(N[C@@H]2CCCC[C@H]2N[C@H]2CCCN(c3ccc(C(F)(F)F)cc3)C2)c1 [Example 186]	115	–
OCCCCc1ccnc(N[C@@H]2CCCC[C@H]2N[C@H]2CCCN(c3ccc(C(F)(F)F)cc3)C2)c1 [Example 187]	42	–
Cn1cc(-c2ccnc(N[C@@H]3CCCC[C@H]3N[C@H]3CCCN(c4ccc(C(F)(F)F)cc4)C3)c2)cn1 [Example 188]	1040	–
CC(C)(O)Cc1cccc(-c2ccnc(N[C@@H]3CCCC[C@H]3N[C@H]3CCCN(c4ccc(C(F)(F)F)cc4)C3)c2)c1 [Example 189]	27	–
FC(F)(F)c1ccc(N2CCC[C@H](N[C@@H]3CCCC[C@H]3Nc3cc(-n4cccc4)ccn3)C2)cc1 [Example 190]	51	–
FC(F)(F)c1ccc(N2CCC[C@H](N[C@@H]3CCCC[C@H]3Nc3cc(-c4ccncc4)ccn3)C2)cc1 [Example 191]	48	–
N#Cc1ccc(N[C@@H]2CCCC[C@H]2N[C@H]2CCCN(c3ccc(C(F)(F)F)cc3)C2)nc1 [Example 192]	284	–
N#Cc1cnc(N[C@@H]2CCCC[C@H]2N[C@H]2CCCN(c3ccc(C(F)(F)F)cc3)C2)s1 [Example 193]	70	–
N#Cc1ccnc(N[C@@H]2CCCC[C@H]2N[C@H]2CCCN(c3ccc(C(F)(F)F)cc3)C2)n1 [Example 194]	606	–
FC(F)(F)c1ccc(N2CCC[C@H](N[C@@H]3CCCC[C@H]3Nc3cc4ccccc4cn3)C2)cc1 [Example 195]	48	–
FC(F)(F)c1ccc(N2CCC[C@H](N[C@@H]3CCCC[C@H]3Nc3ncc(Cl)cn3)C2)cc1 [Example 196]	809	–
FC(F)(F)Oc1ccccc1-c1cnc(N[C@@H]2CCCC[C@H]2N[C@H]2CCCN(c3ccc(C(F)(F)F)cc3)C2)o1 [Example 197]	12	–
FC(F)(F)c1ccc(N2CCC[C@H](N[C@@H]3CCCC[C@H]3Nc3cc(-c4cc[nH]c4)ccn3)C2)cc1 [Example 198]	67	–
C[C@]1(N[C@@H]2CCCC[C@H]2Nc2ncc(-c3cccc(C(N)=O)c3)o2)CCCN(c2ccc(C#N)cc2)C1 [Example 199]	–	2
COC(=O)Nc1cccc(-c2ccnc(N[C@@H]3CCCC[C@H]3N[C@H]3CCCN(c4ccc(C#N)cc4)C3)c2)c1 [Example 200]	–	3
COC(=O)Nc1cccc(-c2ccnc(N[C@@H]3CCCC[C@H]3N[C@H]3CCCN(c4ccc(C#N)cc4)C3)c2)c1 [Example 201]	–	5
N#Cc1ccc(N2CCC[C@H](N[C@@H]3CCCC[C@H]3Nc3cn(-c4ccc(OC(F)(F)F)cc4)nn3)C2)cc1 [Example 202]	–	774
COC(=O)c1ccccc1-c1ccnc(N[C@@H]2CCCC[C@H]2N[C@H]2CCCN(c3ccc(C#N)cc3)C2)c1 [Example 203]	–	211
COC(=O)c1cccn1-c1ccnc(N[C@@H]2CCCC[C@H]2N[C@H]2CCCN(c3ccc(C#N)cc3)C2)c1 [Example 204]	–	147
CCOC(=O)Nc1cccc(-c2cnc(N[C@@H]3CCCC[C@H]3N[C@H]3CCCN(c4ccc(C#N)cc4)C3)o2)c1 [Example 205]	–	0.2

Structure (SMILES)	EC50 [1] [nM]	EC50 (TABLE 2, R2 is Phenyl-CN) [nM]
N#Cc1ccc(N2CCC[C@H](N[C@@H]3CCCC[C@H]3Nc3cc(-n4ccc(C(F)(F)F)n4)ccn3)C2)cc1 [Example 206]	–	440
CC(C)(O)c1cccc(-c2cnc(N[C@@H]3CCCC[C@H]3N[C@H]3CCCN(c4ccc(C#N)cc4)C3)o2)c1 [Example 207]	–	39
N#Cc1ccc(N2CCC[C@H](N[C@@H]3CCCC[C@H]3Nc3cc(-n4cncn4)ccn3)C2)cc1 [Example 208]	–	231
N#Cc1ccc(N2CCC[C@H](N[C@@H]3CCCC[C@H]3Nc3cc(-c4cccc5cn[nH]c45)ccn3)C2)cc1 [Example 209]	–	83
N#Cc1ccc(N2CCC[C@H](N[C@@H]3CCCC[C@H]3Nc3cc(-c4ccc5[nH]ncc5c4)ccn3)C2)cc1 [Example 210]	–	640
N#Cc1ccc(N2CCC[C@H](N[C@@H]3CCCC[C@H]3Nc3cc(-c4cccc5[nH]ncc45)ccn3)C2)cc1 [Example 211]	–	22
N#Cc1ccc(N2CCC[C@H](N[C@@H]3CCCC[C@H]3Nc3cc(-c4cccc5c4CC(=O)N5)ccn3)C2)cc1 [Example 212]	–	13
N#Cc1ccc(N2CCC[C@H](N[C@@H]3CCCC[C@H]3Nc3cc(-c4cccc5c4NC(=O)C5)ccn3)C2)cc1 [Example 213]	–	183
N#Cc1ccc(N2CCC[C@H](N[C@@H]3CCCC[C@H]3Nc3cc(Cc4ccn[nH]4)ccn3)C2)cc1 [Example 214]	–	964
N#Cc1ccc(N2CCC[C@H](N[C@@H]3CCCC[C@H]3Nc3cc(-c4ccc5cn[nH]c5c4)ccn3)C2)cc1 [Example 215]	–	215
N#Cc1ccc(N2CCC[C@H](N[C@@H]3CCCC[C@H]3Nc3cc(-c4cncc5ccccc45)ccn3)C2)cc1 [Example 216]	–	189
N#Cc1ccc(N2CCC[C@H](N[C@@H]3CCCC[C@H]3Nc3cc(-c4cnc5ccccc5c4)ccn3)C2)cc1 [Example 217]	–	478
N#Cc1ccc(N2CCC[C@H](N[C@@H]3CCCC[C@H]3Nc3cc(-c4ccc(CO)cc4)ccn3)C2)cc1 [Example 218]	–	302
COc1ccc(-c2ccnc(N[C@@H]3CCCC[C@H]3N[C@H]3CCCN(c4ccc(C#N)cc4)C3)c2)cc1 [Example 219]	–	45
N#Cc1ccc(N2CCC[C@H](N[C@@H]3CCCC[C@H]3Nc3cc(-c4ccc5nccnc5c4)ccn3)C2)cc1 [Example 221]	–	77
COc1ccc(-c2ccnc(N[C@@H]3CCCC[C@H]3N[C@H]3CCCN(c4ccc(C#N)cc4)C3)c2)cn1 [Example 222]	–	46
N#Cc1ccc(N2C[C@@H]3C[C@H](N[C@@H]4CCCC[C@H]4Nc4ncc(-c5ccccc5F)o4)[C@H]2C3)cc1 [Example 223]	–	5
N#Cc1ccc(N2C[C@@H]3C[C@H](N[C@@H]4CCCC[C@H]4Nc4ncc(-c5ccccc5OC(F)(F)F)o4)[C@H]2C3)cc1 [Example 224]	–	2
N#Cc1ccc(N2C[C@@H]3C[C@H](N[C@@H]4CCCC[C@H]4Nc4ncc(-c5ccc(O)cc5)o4)[C@H]2C3)cc1 [Example 225]	–	54
N#Cc1ccc(N2CCC[C@H](N[C@@H]3CCCC[C@H]3Nc3ncc(-c4ccccc4OC(F)(F)F)o3)C2)cc1 [Example 226]	–	5
N#Cc1ccc(N2C[C@@H]3C[C@H](N[C@@H]4CCCC[C@H]4Nc4cc(-c5ccc(OC(F)F)cc5)ccn4)[C@H]2C3)cc1 [Example 227]	–	16
N#Cc1ccc(N2C[C@@H]3C[C@H](N[C@@H]4CCCC[C@H]4Nc4cc(-c5cccc(O)c5)ccn4)[C@H]2C3)cc1 [Example 228]	–	1
N#Cc1ccc(N2CC3CC2[C@@H](N[C@@H]2CCCC[C@H]2Nc2ncc(-c4ccc(OC(F)F)cc4)o2)C3)cc1 (stereo partly shown) [Example 229]	–	3
